Results on five compounds are retold here after patent US20200407398A1, “Short Proline-Rich Lipopeptide Potentiates Minocycline and Rifampicin Against Multidrug-and Extensively Drug-Resistant Pseudomonas Aeruginosa” (priority 2018, published 2020).

Common to all, as to type: cell-based
Data set [1] concerns P. aeruginosa CANWARD-2011 96846 (gentamicin-, tobramycin-resistant). On the procedure:
(§1) The synthesized SPRLPs were evaluated for their antibacterial potency against a panel of Gram-positive and Gram-negative bacteria (Tables 2 & 3). Some of the included pathogens were collected from patients visiting or admitted to participating Canadian hospitals through the CAN-ICU (27) and CANWARD (28) national surveillance studies. Antibacterial activity was assessed using minimum inhibitory concentration (MIC) against various clinical pathogens.
(§2) Isolates used in this study were either obtained from the American Type Culture Collection (ATCC), the Canadian National Intensive Care Unit (CAN-ICU) surveillance study (27) or the Canadian Ward Surveillance (CANWARD) study (28). Clinical isolates belonging to the CAN-ICU and CANWARD studies were recovered from patients suffering a presumed infectious disease entering or admitted in a participating medical center across Canada during the time of study. MDR P. aeruginosa strains in this study refer to those that are resistant to aminoglycosides, fluoroquinolones, cephalosporins, and carbapenems while XDR strains are those that are resistant to aminoglycosides, fluoroquinolones, cephalosporins, carbapenems, aztreonam and penicillin+β-lactamase inhibitor combination (39, 40).
(§3) Microbroth dilution susceptibility test following the Clinical and Laboratory Standards Institute (CLSI) guidelines (32) was performed to assess the in vitro antibacterial activity of SPRLPs. Overnight grown bacterial cultures were diluted in saline to achieve a 0.5 McFarland turbidity, followed by 1:50 dilution in Mueller-Hinton broth (MHB) for inoculation to a final concentration of 5×10^5 colony forming units/mL. The assay was done on a 96-well plate to which the agents of interest were 2-fold serially diluted in MHB and incubated with equal volumes of inoculum at 37° C. for 18 hours. MIC was determined as the lowest concentration to inhibit visible bacterial growth in form of turbidity, which was confirmed using EMax Plus microplate reader (Molecular Devices, USA) at a wavelength of 590 nm. The well containing MHB broth with or without bacterial cells was used as positive or negative control, respectively.

The next data set relates to S. aureus ATCC 29213. The protocol:
as §1, §2, §3

Data set [2] deals with P. aeruginosa wild-type PAO1. The protocol:
as §1, §2, §3

Data set [3] deals with P. aeruginosa CAN-ICU 62308 (gentamicin-resistant). The protocol: as §1, §2, §3
The subject of data set [4] is methicillin-susceptible Staphylococcus epidermidis CANWARD-2008 81388. Particulars: methicillin-susceptible CANWARD-2008 81388. The protocol:
as §1, §2, §3

Data set [5] concerns methicillin-resistant S. aureus ATCC 33592. The protocol: as §1, §2, §3
The subject of another data set is E. faecalis ATCC 29212. On the procedure: as §1, §2, §3
Data set [6] has as its system methicillin-resistant S. epidermidis CAN-ICU 61589 (ceftazidime-resistant). Particulars: methicillin-resistant CAN-ICU 61589 (ceftazidime-resistant). On the procedure:
as §1, §2, §3

Data set [7] concerns A. baumannii CAN-ICU 63169. On the procedure:
as §1, §2, §3

The next data set relates to P. aeruginosa ATCC 27853. On the procedure: as §1, §2, §3
In data set [8] the test system is S. maltophilia CAN-ICU 62584. The protocol: as §1, §2, §3
In data set [9] the test system is E. coli CAN-ICU 63074 (amikacin-intermediate resistant). On the procedure: as §1, §2, §3
Data set [10] concerns E. coli CANWARD-2011 97615 (gentamicin-, tobramycin-, ciprofloxacin-resistant) aac(3′)iia. On the procedure:
as §1, §2, §3

The subject of a further data set is K. pneumoniae ATCC 13883. The protocol:
as §1, §2, §3

A further data set has as its system E. coli ATCC 25922. The protocol: as §1, §2, §3
The next data set concerns E. faecium ATCC 27270. On the procedure:
as §1, §2, §3

Data set [11] deals with E. coli CAN-ICU 61714 (gentamicin-resistant). On the procedure:
as §1, §2, §3

The subject of a further data set is pig erythrocytes. The protocol: Since PRAMPs are able to kill bacteria through membrane lysis, it is imperative to evaluate whether these synthesized SPRLPs also lyse eukaryotic membranes. The ability to lyse porcine red blood cells was assessed and the minimum concentration to result in 5% erythrocyte hemolysis (MHC) was reported (Tables 2 & 3). […] This greatly limits their therapeutic potential. […] However, all other SPRLPs were non-hemolytic (MHC>512 μg/mL).
The ability of SPRLPs to lyse eukaryotic red blood cells were quantified by the amount of hemoglobin released upon incubation with pig erythrocytes, following published protocols (37, 39). Fresh pig blood drawn from pig antecubital vein was centrifuged at 1000×g for 5 minutes at 4° C., washed with PBS three times and re-suspended in the same buffer, consecutively. Then, agents of interest were 2-fold serially diluted in PBS on 96-well plate and mixed with equal volumes of erythrocyte solution. Post 1-hour incubation at 37° C., intact cells were pelleted by centrifugation at 1000×g for 5 minutes at 4° C. The supernatant was then transferred to a new 96-well plate. The hemoglobin released was measured via EMax Plus microplate reader (Molecular Devices, USA) at 570 nm wavelength. Erythrocytes in PBS with or without 0.1% Triton X-100 was used as negative or positive control, respectively.

Where two headings read alike, the source gives them in different places. Peptide text beside a SMILES is read from it. * marks the point of attachment. Palmitoyl = CCCCCCCCCCCCCCCC(=O)*; Lauroyl = CCCCCCCCCCCC(=O)*; Octanoyl = CCCCCCCC(=O)* Where only a bound is given, the exact number is not on record here.

As for `CCCCCCCCCCCC(=O)N1CCC[C@H]1C(=O)N[C@@H](CCCNC(=N)N)C(=O)N1CCC[C@H]1C(=O)NCC(=O)N1CCC[C@H]1C(=O)N[C@@H](CCCNC(=N)N)C(=O)N1CCC[C@H]1C(N)=O` [Compound C12-PGP, CH3(CH2)10CO-PRPGPRP-NH2] (Lauroyl-PRPGPRP-NH2), the MIC in data set [1] is above 128 µg/mL; in the data set with S. aureus ATCC 29213 it was above 128 µg/mL; in data set [2] it was above 512 µg/mL; in data set [3], above 128 µg/mL; in data set [4], 128 µg/mL; in data set [5], above 128 µg/mL. Moreover, the MIC (in the data set with E. faecalis ATCC 29212; in data set [6]; in data set [7]; with P. aeruginosa ATCC 27853; in data set [8]; in [9]) was above 128 µg/mL in each case. For the same compound, the MIC (in data set [10]; with K. pneumoniae ATCC 13883; with E. coli ATCC 25922; in the data set on E. faecium ATCC 27270; in data set [11]) was above 128 µg/mL each time. Besides, the “MHC (minimum concentration that resulted in 5% red blood cell hemolysis)” value in the data set on pig erythrocytes (red cells of porcine) was above 512 µg/mL.

Consider `CCCCCCCCCCCCCCCC(=O)N1CCC[C@H]1C(=O)N[C@@H](CCCNC(=N)N)C(=O)N1CCC[C@H]1C(=O)N[C@@H](CC(C)C)C(=O)N1CCC[C@H]1C(=O)N[C@@H](CCCNC(=N)N)C(=O)N1CCC[C@H]1C(N)=O` [Compound C16-PLP, CH3(CH2)14CO-PRPLPRP-NH2] (Palmitoyl-PRPLPRP-NH2), for which the MIC in [1] was above 128 µg/mL; in the data set on S. aureus ATCC 29213 it was 64 µg/mL; in [2], 32 µg/mL; in [3] it was above 128 µg/mL; in [4] it was 32 µg/mL; in [5] it was 64 µg/mL. The MIC in the data set with E. faecalis ATCC 29212 was 64 µg/mL; in [6], 64 µg/mL; in data set [7], 128 µg/mL; in the data set on P. aeruginosa ATCC 27853, above 128 µg/mL; in [8], above 128 µg/mL; in data set [9], 64 µg/mL. For the same compound, the MIC in data set [10] is 128 µg/mL; in the data set with K. pneumoniae ATCC 13883, 128 µg/mL; in the data set on E. coli ATCC 25922, 128 µg/mL; in the data set with E. faecium ATCC 27270 it was 64 µg/mL; in [11], 64 µg/mL. Further, the “MHC (minimum concentration that resulted in 5% red blood cell hemolysis)” value in the data set with pig erythrocytes was 16 µg/mL.

With `CCCCCCCCCCCC(=O)N1CCC[C@H]1C(=O)N[C@@H](CCCNC(=N)N)C(=O)N1CCC[C@H]1C(=O)N[C@@H](CC(C)C)C(=O)N1CCC[C@H]1C(=O)N[C@@H](CCCNC(=N)N)C(=O)N1CCC[C@H]1C(N)=O` [Compound C12-PLP, CH3(CH2)10CO-PRPLPRP-NH2] (Lauroyl-PRPLPRP-NH2), the MIC in data set [1] was above 128 µg/mL; in the data set with S. aureus ATCC 29213, 128 µg/mL; in [2], 512 µg/mL; in data set [3] it was above 128 µg/mL; in data set [4], 64 µg/mL; in data set [5], 128 µg/mL. Also, the MIC with E. faecalis ATCC 29212 was 128 µg/mL; in [6], 64 µg/mL; in [7] it was above 128 µg/mL; in the data set with P. aeruginosa ATCC 27853 it was above 128 µg/mL; in data set [8], above 128 µg/mL; in [9] it was above 128 µg/mL. Besides, the MIC in data set [10] is above 128 µg/mL; with K. pneumoniae ATCC 13883, above 128 µg/mL; with E. coli ATCC 25922, above 128 µg/mL; in the data set with E. faecium ATCC 27270 it was 128 µg/mL; in data set [11], above 128 µg/mL. The “MHC (minimum concentration that resulted in 5% red blood cell hemolysis)” value in the data set on pig erythrocytes (red cells of porcine) is above 512 µg/mL.

As to `CCCCCCCC(=O)N1CCC[C@H]1C(=O)N[C@@H](CCCNC(=N)N)C(=O)N1CCC[C@H]1C(=O)N[C@@H](CC(C)C)C(=O)N1CCC[C@H]1C(=O)N[C@@H](CCCNC(=N)N)C(=O)N1CCC[C@H]1C(N)=O` [Compound C8-PLP, CH3(CH2)6CO-PRPLPRP-NH2] (Octanoyl-PRPLPRP-NH2), the MIC is above 128 µg/mL in data set [1]; above 128 µg/mL with S. aureus ATCC 29213; above 512 µg/mL in [2]; above 128 µg/mL in [3]; above 128 µg/mL in data set [4]; above 128 µg/mL in data set [5]. Besides, the MIC (with E. faecalis ATCC 29212; in data set [6]; in data set [7]; with P. aeruginosa ATCC 27853; in data set [8]; in [9]) was above 128 µg/mL each time. Besides, the MIC (in [10]; in the data set with K. pneumoniae ATCC 13883; with E. coli ATCC 25922; in the data set with E. faecium ATCC 27270; in [11]) was above 128 µg/mL in each case. For the same compound, the “MHC (minimum concentration that resulted in 5% red blood cell hemolysis)” value in the data set with pig erythrocytes (red cells of porcine) was above 512 µg/mL.

Regarding `CCCCCCCC(=O)N1CCC[C@H]1C(=O)N[C@@H](CCCNC(=N)N)C(=O)N1CCC[C@H]1C(=O)N[C@@H](Cc1c[nH]c2ccccc12)C(=O)N1CCC[C@H]1C(=O)N[C@@H](CCCNC(=N)N)C(=O)N1CCC[C@H]1C(N)=O` [Compound C8-PWP, CH3(CH2)6CO-PRPWPRP-NH2] (Octanoyl-PRPWPRP-NH2), the MIC was above 128 µg/mL in [1]; above 128 µg/mL in the data set on S. aureus ATCC 29213; above 512 µg/mL in data set [2]; above 128 µg/mL in data set [3]; above 128 µg/mL in data set [4]; above 128 µg/mL in data set [5]. Also, the MIC (with E. faecalis ATCC 29212; in data set [6]; in data set [7]; in the data set on P. aeruginosa ATCC 27853; in data set [8]; in data set [9]) was above 128 µg/mL in each case. Besides, the MIC (in data set [10]; with K. pneumoniae ATCC 13883; in the data set with E. coli ATCC 25922; in the data set on E. faecium ATCC 27270; in data set [11]) was above 128 µg/mL in each case. Besides, in the data set on pig erythrocytes (red cells of porcine), the “MHC (minimum concentration that resulted in 5% red blood cell hemolysis)” value is above 512 µg/mL.

The MIC is the lowest concentration found to suppress growth.
